Data published in PubChem BioAssay (NCI).
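Exposure lasted 48 hours, with cells grown in 96-well plates and compounds tested at five concentrations. Here, GI50 denotes the concentration required for 50% inhibition of growth. TGI marks complete inhibition of growth.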

How the values were obtained:
Assay in all cases: DTP human tumour cell line panel, 48 h
MOLT-4 leukemia = system: MOLT-4 leukemia
SR leukemia = system: SR leukemia
HOP-62 NSCLC = system: HOP-62 NSCLC
A549 NSCLC = system: A549 NSCLC
UACC-257 melanoma = system: UACC-257 melanoma
SK-MEL-28 melanoma = system: SK-MEL-28 melanoma
PC-3 prostate = system: PC-3 prostate
DU-145 prostate = system: DU-145 prostate
OVCAR-4 ovarian = system: OVCAR-4 ovarian
ACHN renal = system: ACHN renal
IGROV1 ovarian = system: IGROV1 ovarian
MALME-3M melanoma = system: MALME-3M melanoma
OVCAR-3 ovarian = system: OVCAR-3 ovarian
MDA-MB-435 = system: MDA-MB-435
786-0 renal = system: 786-0 renal
U251 CNS = system: U251 CNS
M14 melanoma = system: M14 melanoma
UO-31 renal = system: UO-31 renal
MDA-MB-231 breast = system: MDA-MB-231 breast
SK-OV-3 ovarian = system: SK-OV-3 ovarian
RXF 393 renal = system: RXF 393 renal
SW-620 colon = system: SW-620 colon
KM12 colon = system: KM12 colon
EKVX NSCLC = system: EKVX NSCLC
SNB-75 CNS = system: SNB-75 CNS
SN12C renal = system: SN12C renal
HL-60(TB) leukemia = system: HL-60(TB) leukemia
COLO 205 colon = system: COLO 205 colon
NCI/ADR-RES ovarian = system: NCI/ADR-RES ovarian

**Q.** With `Cc1cc2nc3c4cc(C=O)ccc4n(CCN(C)C)c3nc2cc1C` as the molecule, how does the GI50 (MOLT-4 leukemia) read?
**A.** 389 nM

**Q.** And the TGI (MOLT-4 leukemia)?
**A.** 10300 nM

**Q.** What about the GI50 (SR leukemia) of the same molecule?
**A.** 435 nM

**Q.** What about the TGI (SR leukemia) of the same molecule?
**A.** 11100 nM

**Q.** And the GI50 (HOP-62 NSCLC)?
**A.** 1540 nM

**Q.** And the TGI (HOP-62 NSCLC)?
**A.** 10100 nM

**Q.** What about the GI50 (A549 NSCLC) of the same molecule?
**A.** 851 nM

**Q.** And the TGI (A549 NSCLC)?
**A.** 10400 nM

**Q.** And the GI50 (UACC-257 melanoma)?
**A.** 1960 nM

**Q.** What about the TGI (UACC-257 melanoma) of the same molecule?
**A.** 4800 nM

**Q.** What about the GI50 (SK-MEL-28 melanoma) of the same molecule?
**A.** 1780 nM

**Q.** What about the TGI (SK-MEL-28 melanoma) of the same molecule?
**A.** 3650 nM

**Q.** And the GI50 (PC-3 prostate)?
**A.** 1620 nM

**Q.** What about the TGI (PC-3 prostate) of the same molecule?
**A.** 5710 nM

**Q.** And the GI50 (DU-145 prostate)?
**A.** 3030 nM

**Q.** What about the TGI (DU-145 prostate) of the same molecule?
**A.** 10600 nM

**Q.** And the GI50 (OVCAR-4 ovarian)?
**A.** 2120 nM

**Q.** What about the TGI (OVCAR-4 ovarian) of the same molecule?
**A.** 7750 nM

**Q.** And the GI50 (ACHN renal)?
**A.** 426 nM

**Q.** What about the TGI (ACHN renal) of the same molecule?
**A.** 4560 nM

**Q.** What about the GI50 (IGROV1 ovarian) of the same molecule?
**A.** 1520 nM

**Q.** And the TGI (IGROV1 ovarian)?
**A.** 6390 nM

**Q.** And the GI50 (MALME-3M melanoma)?
**A.** 1290 nM

**Q.** And the TGI (MALME-3M melanoma)?
**A.** 2760 nM

**Q.** What about the GI50 (OVCAR-3 ovarian) of the same molecule?
**A.** 1970 nM

**Q.** What about the TGI (OVCAR-3 ovarian) of the same molecule?
**A.** 6580 nM

**Q.** What about the GI50 (MDA-MB-435) of the same molecule?
**A.** 1660 nM

**Q.** And the TGI (MDA-MB-435)?
**A.** 3070 nM

**Q.** And the GI50 (786-0 renal)?
**A.** 1430 nM

**Q.** What about the TGI (786-0 renal) of the same molecule?
**A.** 9960 nM

**Q.** And the GI50 (U251 CNS)?
**A.** 1650 nM

**Q.** What about the TGI (U251 CNS) of the same molecule?
**A.** 10100 nM

**Q.** What about the GI50 (M14 melanoma) of the same molecule?
**A.** 1300 nM

**Q.** What about the TGI (M14 melanoma) of the same molecule?
**A.** 2950 nM

**Q.** What about the GI50 (UO-31 renal) of the same molecule?
**A.** 846 nM

**Q.** And the TGI (UO-31 renal)?
**A.** 8780 nM

**Q.** And the GI50 (MDA-MB-231 breast)?
**A.** 1830 nM

**Q.** What about the TGI (MDA-MB-231 breast) of the same molecule?
**A.** 6990 nM

**Q.** What about the GI50 (SK-OV-3 ovarian) of the same molecule?
**A.** 2350 nM

**Q.** And the TGI (SK-OV-3 ovarian)?
**A.** 10900 nM

**Q.** What about the GI50 (RXF 393 renal) of the same molecule?
**A.** 1060 nM

**Q.** What about the TGI (RXF 393 renal) of the same molecule?
**A.** 2740 nM

**Q.** And the GI50 (SW-620 colon)?
**A.** 479 nM

**Q.** What about the TGI (SW-620 colon) of the same molecule?
**A.** 4310 nM

**Q.** What about the GI50 (KM12 colon) of the same molecule?
**A.** 2120 nM

**Q.** And the TGI (KM12 colon)?
**A.** 10000 nM

**Q.** What about the GI50 (EKVX NSCLC) of the same molecule?
**A.** 2040 nM

**Q.** What about the TGI (EKVX NSCLC) of the same molecule?
**A.** 6270 nM

**Q.** What about the GI50 (SNB-75 CNS) of the same molecule?
**A.** 1980 nM

**Q.** What about the TGI (SNB-75 CNS) of the same molecule?
**A.** 5000 nM

**Q.** What about the GI50 (SN12C renal) of the same molecule?
**A.** 1030 nM

**Q.** What about the TGI (SN12C renal) of the same molecule?
**A.** 8040 nM

**Q.** And the GI50 (HL-60(TB) leukemia)?
**A.** 1350 nM

**Q.** What about the TGI (HL-60(TB) leukemia) of the same molecule?
**A.** 5840 nM

**Q.** And the GI50 (COLO 205 colon)?
**A.** 574 nM

**Q.** What about the TGI (COLO 205 colon) of the same molecule?
**A.** 2100 nM

**Q.** And the GI50 (NCI/ADR-RES ovarian)?
**A.** 607 nM

**Q.** And the TGI (NCI/ADR-RES ovarian)?
**A.** 6970 nM
